The results in this text go back to patent US8871753B2, “Macrocyclic compounds and their use as kinase inhibitors” (Incyte Corporation, priority 2008, dated 2014).

SMILES strings stand for the structures. Structures can show the parent of a compound that is named as a salt. Where two headings read alike, the source gives them in different places.

Data set [1] addresses T1, human JAK1 (a.a. 837-1142) (Homo sapiens, UniProt P23458).
T1 construct: human JAK1 (a.a. 837-1142); His tag (N); made in house; host or cells: insect cells (baculovirus)
Put plainly: In vitro JAK kinase assay (HTRF, phosphorylation of a biotinylated peptide), JAK1. Type of data set: biochemical. The settings on record: read-out: JAK1 IC50. In short, it runs like this:
(§1)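 Kinase reactions ran at room temperature for 1 h with ATP matched per isoform (JAK1 90 μM, JAK2 30 μM, JAK3 3 μM). After an EDTA stop, the phosphorylated biotin-peptide was read by HTRF using Eu-Py20 and SA-APC after 40 min binding.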

The target in data set [2] is T2, human JAK2 (a.a. 828-1132) (Homo sapiens, UniProt O60674).
T2 construct: JAK2 (a.a. 828-1132); His tag (N); made in house; host or cells: insect cells (baculovirus)
Put plainly: In vitro JAK kinase assay (HTRF, phosphorylation of a biotinylated peptide), JAK2. The format is biochemical. In short, it runs like this:
as §1

In data set [3] the target is T3, human JAK3 (a.a. 781-1124) (Homo sapiens, UniProt P52333).
T3 construct: JAK3 (a.a. 781-1124); His tag (N); made in house; host or cells: insect cells (baculovirus)
As to the kind of experiment: In vitro JAK kinase assay (HTRF, phosphorylation of a biotinylated peptide), JAK3. The format is biochemical. In short, it runs like this: as §1

Data set [4] has as its target TYK2 (Homo sapiens, UniProt P29597). Put plainly: TYK2 kinase inhibition (Table A1). The format is biochemical.
In data set [5] the target is T4, Recombinant Human Anaplastic Lymphoma Kinase (Homo sapiens, UniProt Q9UM73).
T4 construct: purchased Invitrogen, Carlsbad, Calif
As to the kind of experiment: ALK HTRF kinase assay. Type of data set: biochemical. The conditions noted are these: for ALK % inhibition at a concentration of 500 nM or 1 mM: compound at a concentration of 500 nM or 1 mM. In short, it runs like this: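 Readout was HTRF between a Eu-W1024 anti-phosphotyrosine antibody and streptavidin-APC bound to biotinylated peptide phosphorylated by recombinant human ALK. IC50 values came from a four-parameter logistic fit.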

Where [6] appears, read: compound at a concentration of 500 nM or 1 mM (not specified), cells shown as percentage.
Where [7] appears, read: method AA1 (90 μM ATP) or AA2 (1000 μM ATP), not stated per value.
Where [8] appears, read: method AA1 (30 μM ATP) or AA2 (1000 μM ATP), not stated per value.
The mark [9] stands for this setting: method AA1 (3 μM ATP) or AA2 (1000 μM ATP), not stated per value.
[10] abbreviates: compound at 500 nM or 1 mM, 90 μM ATP.

T1 sequence (P23458 849-1154): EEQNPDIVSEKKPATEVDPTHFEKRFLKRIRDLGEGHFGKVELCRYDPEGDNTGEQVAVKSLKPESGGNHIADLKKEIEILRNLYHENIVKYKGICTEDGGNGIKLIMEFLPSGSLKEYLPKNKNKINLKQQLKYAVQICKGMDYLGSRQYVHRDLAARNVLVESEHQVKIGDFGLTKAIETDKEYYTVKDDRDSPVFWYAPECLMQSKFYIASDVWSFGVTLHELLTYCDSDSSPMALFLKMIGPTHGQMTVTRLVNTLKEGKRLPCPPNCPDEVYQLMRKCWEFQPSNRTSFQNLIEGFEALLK
T4 sequence (Q9UM73 19-1620): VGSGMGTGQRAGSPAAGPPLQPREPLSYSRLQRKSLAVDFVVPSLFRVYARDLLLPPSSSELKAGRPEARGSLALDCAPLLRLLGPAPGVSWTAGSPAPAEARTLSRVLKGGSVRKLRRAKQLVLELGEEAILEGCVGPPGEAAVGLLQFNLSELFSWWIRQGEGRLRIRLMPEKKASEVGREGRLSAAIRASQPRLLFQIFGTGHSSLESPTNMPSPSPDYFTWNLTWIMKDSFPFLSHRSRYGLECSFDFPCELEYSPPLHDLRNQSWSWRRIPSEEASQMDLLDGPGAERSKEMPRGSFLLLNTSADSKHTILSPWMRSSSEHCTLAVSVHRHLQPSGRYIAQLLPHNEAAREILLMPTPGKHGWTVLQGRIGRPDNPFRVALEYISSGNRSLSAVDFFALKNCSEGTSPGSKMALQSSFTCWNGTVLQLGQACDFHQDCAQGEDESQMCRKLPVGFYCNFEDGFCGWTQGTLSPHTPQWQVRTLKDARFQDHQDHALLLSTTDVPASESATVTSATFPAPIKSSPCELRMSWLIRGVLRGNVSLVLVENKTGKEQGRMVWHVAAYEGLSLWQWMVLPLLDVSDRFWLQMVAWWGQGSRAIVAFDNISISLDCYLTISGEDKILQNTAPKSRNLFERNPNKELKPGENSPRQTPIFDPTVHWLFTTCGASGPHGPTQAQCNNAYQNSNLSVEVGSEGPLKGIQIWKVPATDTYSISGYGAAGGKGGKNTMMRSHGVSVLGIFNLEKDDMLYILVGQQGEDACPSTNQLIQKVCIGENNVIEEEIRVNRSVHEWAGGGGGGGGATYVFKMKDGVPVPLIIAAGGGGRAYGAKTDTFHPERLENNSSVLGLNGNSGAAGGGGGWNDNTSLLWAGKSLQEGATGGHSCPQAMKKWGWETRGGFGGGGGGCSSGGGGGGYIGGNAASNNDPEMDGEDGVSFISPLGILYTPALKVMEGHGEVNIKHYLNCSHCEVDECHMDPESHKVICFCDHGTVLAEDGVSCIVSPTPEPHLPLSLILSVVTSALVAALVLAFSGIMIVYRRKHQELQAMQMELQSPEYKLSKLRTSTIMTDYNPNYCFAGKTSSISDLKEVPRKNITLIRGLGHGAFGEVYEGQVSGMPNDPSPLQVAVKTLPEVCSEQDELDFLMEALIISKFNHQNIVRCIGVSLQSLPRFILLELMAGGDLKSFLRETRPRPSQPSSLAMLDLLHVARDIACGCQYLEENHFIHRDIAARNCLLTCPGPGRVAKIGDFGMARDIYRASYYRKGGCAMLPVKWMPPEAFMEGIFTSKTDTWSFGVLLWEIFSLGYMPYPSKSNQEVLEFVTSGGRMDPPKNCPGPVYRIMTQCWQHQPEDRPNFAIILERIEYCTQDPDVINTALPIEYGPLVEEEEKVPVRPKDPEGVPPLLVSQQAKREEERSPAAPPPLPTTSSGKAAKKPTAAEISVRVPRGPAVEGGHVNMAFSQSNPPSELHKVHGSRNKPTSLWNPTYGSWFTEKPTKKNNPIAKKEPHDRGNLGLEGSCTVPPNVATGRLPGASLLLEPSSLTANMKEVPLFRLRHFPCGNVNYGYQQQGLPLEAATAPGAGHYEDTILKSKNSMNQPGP
T2 sequence (O60674 828-1132): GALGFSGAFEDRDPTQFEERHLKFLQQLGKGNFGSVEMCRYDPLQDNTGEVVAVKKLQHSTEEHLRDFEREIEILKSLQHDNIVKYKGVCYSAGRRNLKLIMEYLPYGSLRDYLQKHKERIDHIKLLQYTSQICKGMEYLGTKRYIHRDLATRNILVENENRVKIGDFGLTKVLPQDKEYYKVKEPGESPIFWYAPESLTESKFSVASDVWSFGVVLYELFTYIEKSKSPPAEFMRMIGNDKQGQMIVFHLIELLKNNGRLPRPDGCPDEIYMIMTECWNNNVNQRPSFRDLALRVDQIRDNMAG
T3 sequence (P52333 781-1124): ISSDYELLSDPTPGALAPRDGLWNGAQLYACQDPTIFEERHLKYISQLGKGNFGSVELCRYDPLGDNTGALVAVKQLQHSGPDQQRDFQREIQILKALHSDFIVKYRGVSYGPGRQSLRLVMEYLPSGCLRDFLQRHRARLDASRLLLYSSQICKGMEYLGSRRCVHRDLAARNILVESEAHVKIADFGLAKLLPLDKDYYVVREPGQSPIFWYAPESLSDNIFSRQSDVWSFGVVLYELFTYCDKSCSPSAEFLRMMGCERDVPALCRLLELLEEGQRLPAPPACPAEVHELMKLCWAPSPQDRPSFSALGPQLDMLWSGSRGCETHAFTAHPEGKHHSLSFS
Chain of TYK2 (P29597 whole entry): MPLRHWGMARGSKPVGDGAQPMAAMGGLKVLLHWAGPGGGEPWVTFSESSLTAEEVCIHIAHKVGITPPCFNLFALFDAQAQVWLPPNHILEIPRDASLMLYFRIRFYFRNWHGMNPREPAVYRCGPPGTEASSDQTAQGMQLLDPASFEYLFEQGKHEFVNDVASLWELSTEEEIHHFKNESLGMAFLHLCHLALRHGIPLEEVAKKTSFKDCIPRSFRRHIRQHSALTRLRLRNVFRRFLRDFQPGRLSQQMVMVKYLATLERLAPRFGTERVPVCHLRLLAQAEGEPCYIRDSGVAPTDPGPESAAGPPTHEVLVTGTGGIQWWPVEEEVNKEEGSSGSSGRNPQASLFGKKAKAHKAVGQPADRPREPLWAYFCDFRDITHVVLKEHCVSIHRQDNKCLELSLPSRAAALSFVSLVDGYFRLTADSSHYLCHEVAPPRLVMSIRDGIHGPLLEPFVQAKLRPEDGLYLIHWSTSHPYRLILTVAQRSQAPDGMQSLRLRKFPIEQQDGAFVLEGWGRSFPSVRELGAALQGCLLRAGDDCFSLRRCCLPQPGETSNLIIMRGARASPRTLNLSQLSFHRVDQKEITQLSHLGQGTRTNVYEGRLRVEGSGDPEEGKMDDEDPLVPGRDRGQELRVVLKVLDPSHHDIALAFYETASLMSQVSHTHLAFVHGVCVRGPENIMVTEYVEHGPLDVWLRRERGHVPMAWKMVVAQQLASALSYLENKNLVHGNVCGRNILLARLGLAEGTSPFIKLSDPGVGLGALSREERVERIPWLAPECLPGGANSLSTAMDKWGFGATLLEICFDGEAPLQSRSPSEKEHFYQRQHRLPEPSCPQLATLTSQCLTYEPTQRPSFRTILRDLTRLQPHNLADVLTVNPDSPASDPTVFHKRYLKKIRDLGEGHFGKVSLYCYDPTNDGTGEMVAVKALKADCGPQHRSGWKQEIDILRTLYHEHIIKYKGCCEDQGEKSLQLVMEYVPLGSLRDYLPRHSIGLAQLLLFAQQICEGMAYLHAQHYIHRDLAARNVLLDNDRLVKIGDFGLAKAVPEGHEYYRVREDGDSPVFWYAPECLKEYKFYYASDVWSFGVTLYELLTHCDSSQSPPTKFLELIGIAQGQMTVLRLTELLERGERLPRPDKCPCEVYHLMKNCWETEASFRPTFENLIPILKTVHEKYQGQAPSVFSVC

For the setting “from OCCc1cccc(Nc2nc(Nc3cccc(O)c3)ncc2Cl)c1, ether bond, 14-membered ring, PPh3/DIAD, THF, 8.5 mM, 25.0 °C, 2.0 h”, `Clc1cnc2nc1Nc1cccc(c1)CCOc1cccc(c1)N2` [Example D5, 6-Chloro-16-oxa-2,4,8,23-tetraazatetracyclo[15.3.1.1(3,7).1(9,13)]tricosa-1(21),3(23),4,6,9(22),10,12,17,19-nonaene trifluoroacetate] displayed a ring closure, yield after HPLC of 20%. For the same compound, the IC50 in data set [1] (Table D1) is 30 nM; in data set [2] (Table D1), 15 nM; in data set [3] (Table D1) it was 36 nM; in data set [4] (Table D1), 12 nM; in data set [5] (Table D1, 90 μM ATP), 509 nM.

`Nc1ccc2cc1CCc1cncc(c1)Nc1ncc(Cl)c(n1)N2` [Example B20, 6-Chloro-2,4,8,18,22-pentaazatetracyclo[14.3.1.1(3,7).1(9,13)]docosa-1(20),3(22),4,6,9(21),10,12,16,18-nonaen-12-amine tris(trifluoroacetate)]: the ring closure, yield after HPLC (from Nc1cncc(CCc2cc(Nc3nc(Cl)ncc3Cl)ccc2N)c1, cn_pd bond, 13-membered ring, Pd2(dba)3/Xantphos/Cs2CO3/DIEA, 1,4-dioxane/DMF 3:1, 77.0 mM, 160.0 °C, 0.5 h) came to 23%. In addition, the IC50 in data set [1] (Table B1) came to 1 nM; in data set [2] (Table B1), 1.3 nM; in data set [3] (Table B1), 6.7 nM; in data set [4] (Table B1), 1.6 nM. The “ALK % of inhibition at a concentration of 500 nM or 1 mM” value (“ALK % of inhibition” below) in data set [5] (setting [6]) is recorded as 51%.

The compound `Fc1cnc2nc1Nc1cccc(c1)CCc1cncc(c1)N2` [Example C21, 6-Fluoro-2,4,8,18,22-pentaazatetracyclo[14.3.1.1(3,7).1(9,13)]docosa-1(20),3(22),4,6,9(21),10,12,16,18-nonaene bis(trifluoroacetate)] displayed a ring closure, yield after HPLC (from Nc1cncc(CCc2cccc(Nc3nc(Cl)ncc3F)c2)c1, cn_pd bond, 13-membered ring, Pd(OAc)2/Xantphos/Cs2CO3/Et3N, 1,4-dioxane, 87.0 mM, 150.0 °C, 2.0 h) of 37%. The IC50 in data set [1] was determined as 13 nM; in data set [2] it was 28 nM; in data set [3], 111 nM; in data set [4], 15 nM. The “ALK % inhibition at a concentration of 500 nM or 1 mM” value in data set [5] is given as 26%.

As for `Nc1ccc2cc1CCc1cncc(c1)Nc1ncc(F)c(n1)N2`, under “from Nc1cncc(CCc2cc(Nc3nc(Cl)ncc3F)ccc2N)c1, cn_pd bond, 13-membered ring, Pd(OAc)2/Xantphos/Cs2CO3/Et3N, 1,4-dioxane, 158.0 mM, 160.0 °C, 0.33 h”, the ring closure, yield after HPLC was 8%.

For the setting “from Cc1cnc(Cl)nc1Nc1ccc(N)c(CCc2cncc(N)c2)c1, cn_pd bond, 13-membered ring, Pd(OAc)2/Xantphos/Cs2CO3/Et3N, 1,4-dioxane, 135.0 mM, 160.0 °C, 0.33 h”, `Cc1cnc2nc1Nc1ccc(N)c(c1)CCc1cncc(c1)N2` [Example C50, 6-Methyl-2,4,8,18,22-pentaazatetracyclo[14.3.1.1(3,7).1(9,13)]docosa-1(20),3(22),4,6,9(21),10,12,16,18-nonaen-12-amine tris(trifluoroacetate)] registered a ring closure, yield after HPLC of 50%. The half-maximal inhibitory concentration (IC50) in data set [1] was 33 nM; in data set [2], 111 nM; in data set [3] it was more than 400 nM; in data set [4], 80 nM.

In turn, `Clc1cnc2nc1Nc1cccc(c1)/C=C\c1cncc(c1)N2` [Example C20, (14Z)-6-Chloro-2,4,8,18,22-pentaazatetracyclo[14.3.1.1(3,7).1(9,13)]docosa-1(20),3(22),4,6,9(21),10,12,14,16,18-decaene bis(trifluoroacetate)] registered a ring closure, yield after HPLC (from Nc1cncc(/C=C\c2cccc(Nc3nc(Cl)ncc3Cl)c2)c1, cn_pd bond, 13-membered ring, Pd(OAc)2/Xantphos/Cs2CO3/Et3N, 1,4-dioxane, 70.0 mM, 150.0 °C, 1.0 h) of 30%. Also, the IC50 in data set [1] amounted to 2.9 nM; in data set [2] it was 2.3 nM; in data set [3] it was 13 nM; in data set [4], 4.4 nM. Moreover, the “ALK % inhibition at a concentration of 500 nM or 1 mM” value in data set [5] was found to be 26%.

With `CC(=O)N1CCN(c2cc(-c3cc4cc(c3)Nc3ncc(Cl)c(n3)Nc3cccc(c3)OCC4)ccn2)CC1` [Example D35, 19-[2-(4-Acetylpiperazin-1-yl)pyridin-4-yl]-6-chloro-14-oxa-2,4,8,23-tetraazatetracyclo[15.3.1.1(3,7).1(9,13)]tricosa-1(21),3(23),4,6,9(22),10,12,17,19-nonaene bis(trifluoroacetate)], the IC50 in data set [1] (Table D1) was determined as 0.7 nM; in data set [2] (Table D1) it was 0.4 nM; in data set [3] (Table D1), 7.7 nM; in data set [4] (Table D1), 4.3 nM; in data set [5] (Table D1, 90 μM ATP), 150 nM.

As to `Cc1occc1NC(=O)Nc1ccc2cc1CCc1cccc(c1)Nc1ncc(Cl)c(n1)N2` [Example B118, N-[6-Chloro-2,4,8,22-tetraazatetracyclo[14.3.1.1(3,7).1(9,13)]docosa-1(20), 3(22),4,6,9(21),10,12,16,18-nonaen-12-yl]-N′-(2-methyl-3-furyl)urea trifluoroacetate], the IC50 in data set [1] (Table B1) came to 1.3 nM; in data set [2] (Table B1) it was 2.1 nM; in data set [3] (Table B1) it was 20 nM; in data set [4] (Table B1), 7.7 nM. Moreover, the “ALK % of inhibition” value in data set [5] (setting [6]) came to 22%.

Regarding `N#Cc1ccc(S(=O)(=O)N2CCC(CC(=O)Nc3ccc4cc3CCc3cncc(c3)Nc3ncc(Cl)c(n3)N4)CC2)cc1` [Example A199, N-[6-Chloro-2,4,8,18,22-pentaazatetracyclo[14.3.1.1(3,7).1(9,13)]docosa-1(20),3(22),4,6,9(21),10,12,16,18-nonaen-12-yl]-2-{1-[(4-cyanophenyl)sulfonyl]piperidin-4-yl}acetamide bis(trifluoroacetate)], the IC50 in data set [1] (setting [7]) was 32 nM; in data set [2] (setting [8]), 199 nM; in data set [3] (setting [9]), more than 200 nM; in data set [4], more than 200 nM. Also, in data set [5] (setting [10]), the “ALK % of inhibition” value is given as 41%.

In the case of `CN(C(=O)Nc1ccc2cc1CCc1cncc(c1)Nc1ncc(Cl)c(n1)N2)[C@H]1CCN(Cc2ccccc2)C1` [Example B284, N-[(3S)-1-Benzylpyrrolidin-3-yl]-N′-[6-chloro-2,4,8,18,22-pentaazatetracyclo[14.3.1.1(3,7).1(9,13)]docosa-1(20),3(22),4,6,9(21),10,12,16,18-nonaen-12-yl]-N-methylurea], the IC50 is 72 nM in data set [1] (Table B1), 368 nM in data set [2] (Table B1), more than 1000 nM in data set [3] (Table B1) and 409 nM in data set [4] (Table B1). For the same compound, the “ALK % of inhibition” value in data set [5] (setting [6]) came out at 25%.

With `O=C(Nc1ccc2cc1CCc1cccc(c1)Nc1ncc(Cl)c(n1)N2)[C@@H]1CCCN1C(=O)Nc1ccccc1` [Example A69, (2S)—N(2)-[6-Chloro-2,4,8,22-tetraazatetracyclo[14.3.1.1(3,7).1(9,13)]docosa-1(20),3(22),4,6,9(21),10,12,16,18-nonaen-12-yl]-N(1)-phenylpyrrolidine-1,2-dicarboxamide trifluoroacetate], the IC50 in data set [1] (setting [7]) was found to be 41 nM; in data set [2] (setting [8]) it was 7.7 nM; in data set [3] (setting [9]) it was 16 nM; in data set [4] it was 39 nM. Further, in data set [5] (setting [10]), the “ALK % of inhibition” value stood at 27%.

As to `O=C(Nc1ccc2cc1CCc1cncc(c1)Nc1ncc(Cl)c(n1)N2)N1CCC(c2ccccc2)C1` (stereo not shown) [Example B312, N-[6-Chloro-2,4,8,18,22-pentaazatetracyclo[14.3.1.1(3,7).1(9,13)]docosa-1(20),3(22),4,6,9(21),10,12,16,18-nonaen-12-yl]-3-phenylpyrrolidine-1-carboxamide bis(trifluoroacetate)], the IC50 in data set [1] (Table B1) is 5 nM; in data set [2] (Table B1), 70 nM; in data set [3] (Table B1) it was more than 400 nM; in data set [4] (Table B1) it was 42 nM. For the same compound, the “ALK % of inhibition” value in data set [5] (percentage inhibition of the example compound at a concentration of 500 nM or 1 mM (not specified which)) is given as 40%.

For the compound `O=C(Nc1cc2cc(c1)Nc1nc(ncc1Cl)Nc1cccc(c1)CC2)c1ccno1` [Example B206, N-[6-Chloro-2,4,8,22-tetraazatetracyclo[14.3.1.1(3,7).1(9,13)]docosa-1(20),3(22),4,6,9(21),10,12,16,18-nonaen-11-yl]isoxazole-5-carboxamide trifluoroacetate], the IC50 was 16 nM in data set [1] (Table B1); 15 nM in data set [2] (Table B1); 41 nM in data set [3] (Table B1); 46 nM in data set [4] (Table B1); more than 10000 nM in data set [5] (Table B1, cells without percent sign).

Regarding `O=C(Nc1ccccc1)N1CCN(c2cc(-c3cc4cc(c3)Nc3ncc(Cl)c(n3)Nc3cccc(c3)OCC4)ccn2)CC1` [Example D44, 4-{4-[6-Chloro-14-oxa-2,4,8,23-tetraazatetracyclo[15.3.1.1(3,7).1(9,13)]tricosa-1(21),3(23),4,6,9(22),10,12,17,19-nonaen-19-yl]pyridin-2-yl}-N-phenylpiperazine-1-carboxamide bis(trifluoroacetate)], the IC50 in data set [1] (Table D1) is 2.6 nM; in data set [2] (Table D1), 1.5 nM; in data set [3] (Table D1), 18 nM; in data set [4] (Table D1), 15 nM; in data set [5] (Table D1, 90 μM ATP) it was 480 nM.
